{"source": "patent US9480251B2", "about": "“Insecticidal compositions and method for insect control” (FMC Corporation, priority 2010, dated 2016)", "assay_type_in_all_cases": "in vivo", "key": {"[1]": {"system": "Lasius ant (Lasius niger)", "experiment": "Direct spray contact toxicity, Lasius ant", "conditions": "ten insects on asphalt slab, directly sprayed for 2 seconds", "protocol": "(§1) Formulations of geraniol, cedar oil and mixtures thereof were evaluated for contact toxicity against the Lasius ant (Lasius niger), lady beetle (Harmonia axyridis), brown stink bug (Halyomorpha halys), green peach aphid (Myzus persicae), house cricket (Acheta domesticus) and […] bug (Pseudococcus longispinus). […] Each test solution was poured into a 16 ounce spray can, a valve was installed and the can was charged with carbon dioxide as the propellant. Direct spraying of the test substance onto insects was performed to determine the efficacy of each test solution as follows: Lasius ant and lady beetle test-In separate tests, ten insects of each species were placed onto an asphalt slab and directly sprayed for 2 seconds with the appropriate test solutions."}, "[2]": {"system": "lady beetle (Harmonia axyridis)", "experiment": "Direct spray contact toxicity, lady beetle", "conditions": "ten insects on asphalt slab, directly sprayed for 2 seconds", "protocol": "as §1"}, "[3]": {"system": "brown stink bug (Halyomorpha halys)", "experiment": "Direct spray contact toxicity, brown stink bug", "conditions": "ten insects on concrete slab, directly sprayed for 2 seconds", "protocol": "as §1, with “follows: Brown stink bug” for “follows: Lasius ant”, “and house cricket” for “and lady beetle”, “onto a concrete” for “onto an asphalt”"}, "[4]": {"system": "green peach aphid (Myzus persicae)", "experiment": "Spray to runoff of infested bell pepper plant, green peach aphid", "conditions": "infested bell pepper plant sprayed until runoff", "protocol": "as §1, with “Green peach aphid” for “Lasius ant and lady beetle”, “a bell pepper plant, infested with green peach aphids, was” for “ten insects of each species were placed onto an asphalt slab and directly”, “sprayed” for “sprayed for 2 seconds”, “solution until runoff.” for “solutions.”"}, "[5]": {"system": "house cricket (Acheta domesticus)", "experiment": "Direct spray contact toxicity, house cricket", "conditions": "ten insects on concrete slab, directly sprayed for 2 seconds", "protocol": "as §1, with “follows: Brown stink bug” for “follows: Lasius ant”, “and house cricket” for “and lady beetle”, “onto a concrete” for “onto an asphalt”"}, "[6]": {"system": "longtail mealy bug (Pseudococcus longispinus)", "experiment": "Spray to runoff of infested Euonymus leaves, longtail mealy bug", "conditions": "ten bugs on variegated Euonymus leaves sprayed until runoff, assessed after 24 hours", "protocol": "Formulations of geraniol, cedar oil and mixtures thereof were evaluated for contact toxicity against the Lasius ant (Lasius niger), lady beetle (Harmonia axyridis), brown stink bug (Halyomorpha halys), green peach aphid (Myzus persicae), house cricket (Acheta domesticus) and longtail mealy bug (Pseudococcus longispinus). The plant oil test solutions were prepared by dissolving the appropriate amount of the plant oil(s) in deionized water containing 0.5% by weight sodium laureth sulfate, for example 4.4 grams of geraniol was dissolved in 1 liter of deioinized water containing 5 grams of sodium laureth sulfate to prepare a 0.44% test solution of geraniol. Each test solution was poured into a 16 ounce spray can, a valve was installed and the can was charged with carbon dioxide as the propellant. Direct spraying of the test substance onto insects was performed to determine the efficacy of each test solution as follows:\nLongtail mealy bug test—In separate tests, ten longtail mealy bugs were established on several leaves of a variegated Euonymus plant, the infested leaves were sprayed with the appropriate test solution until runoff."}}}
{"smiles": "CC(C)=CCC/C(C)=C/CO", "note": "[0.44% geraniol, trans-3,7-dimethyl-2,6-octadien-1-ol]", "values": [{"measurement": "Recovery from knockdown", "setting": "[1]", "result": "None"}, {"measurement": "Time to 100% Knockdown", "setting": "[1]", "result": 9, "unit": "s"}, {"measurement": "Time to 100% mortality", "setting": "[1]", "result": 20, "unit": "s"}, {"measurement": "Recovery from knockdown", "setting": "[2]", "result": "None"}, {"measurement": "Time to 100% Knockdown", "setting": "[2]", "result": 20, "unit": "s"}, {"measurement": "Time to 100% mortality", "setting": "[2]", "result": 60, "unit": "s"}, {"measurement": "Recovery from knockdown", "setting": "[3]", "result": "None"}, {"measurement": "Time to 100% Knockdown", "setting": "[3]", "result": 20, "unit": "s"}, {"measurement": "Time to 100% mortality", "setting": "[3]", "result": 90, "unit": "s"}, {"measurement": "Recovery from knockdown", "setting": "[4]", "result": "None"}, {"measurement": "Time to 100% Knockdown", "setting": "[4]", "result": "No apparent"}, {"measurement": "Time to 100% mortality", "setting": "[4]", "result": 3, "unit": "h"}, {"measurement": "Recovery from knockdown", "setting": "[5]", "result": "None"}, {"measurement": "Time to 100% Knockdown", "setting": "[5]", "result": 60, "unit": "s"}, {"measurement": "Time to 100% mortality", "setting": "[5]", "result": 3, "unit": "h"}, {"measurement": "mortality at 24 hours", "setting": "[6]", "result": 50, "unit": "% mortality at"}]}
